Reference: US20020137929A1, “1 - (3-heterocyclylphenyl) isothiourea, -isourea, -guanidine and -amidine herbicidal agents” (Intellectual Property Department, BASF Aktiengesellschaft, priority 1998, published 2002)

How the values were obtained:
[1] = system: CHEAL (Lambsquarters, Common); assay: Preemergence herbicidal evaluation; assay type: in vivo, Chenopodium album; conditions: rated 4-5 weeks after treatment
Procedure, shortened: (§1)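 Rating at 4–5 wk post-spray on a 0–9 visual scale vs control. Application: aqueous acetone, ~0.0156–0.500 kg/ha, to soil surface after seeding, preemergence.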

[2] = system: IPOSS (Morningglory Spp.); assay: Preemergence herbicidal evaluation; assay type: in vivo, Ipomoea Spp.; conditions: rated 4-5 weeks after treatment
Excerpt: (§2) Results of herbicide evaluation are expressed on a rating scale (0-9). The scale is based upon a visual observation of plant stand, vigor, malformation, size, chlorosis and overall plant appearance as compared with a control.
The preemergence herbicidal activity of the test compounds of the present invention is exemplified by the following tests in which the seeds of a variety of monocotyledonous and dicotyledonous plants are separately mixed with potting soil and planted on top of approximately one inch of soil in separate pint cups. After planting, the cups are sprayed with the selected aqueous acetone solution containing test compound in sufficient quantity to provide the equivalent of about 0.0156 to 0.500 kg per hectare of test compound per cup. The treated cups are then placed on greenhouse benches, watered and cared for in accordance with conventional greenhouse procedures. From four to five weeks after treatment, the tests are terminated and each cup is examined and rated according to the rating system provided in Example 37.
The compounds evaluated are reported by compound number given in Example 37.

ECHCG (Barnyardgrass) = assay: Postemergence herbicidal evaluation; assay type: in vivo, Echinochloa crus-galli; conditions: postemergence
Procedure, shortened: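 Visual 0–9 rating versus control (stand, vigor, malformation, size, chlorosis, overall appearance), taken four to five weeks post-spray. Two-week-old seedlings received roughly 0.0156–0.500 kg/ha active in acetone/water (50/50) with 0.5% TWEEN 20 via nozzle at 40 psi.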

ORYSAT (Rice, Tebonnet) = assay: Preemergence herbicidal evaluation; assay type: in vivo, Oryza sativa, (L.) Tebonnet; conditions: rated 4-5 weeks after treatment
Procedure, shortened: as §1

MOOVA (Monochoria) = assay: Postemergence weed control under flooded paddy conditions; assay type: in vivo, Monochoria vaginalis; conditions: postemergence weeds, 3-4 weeks after treatment
Procedure, shortened: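 Weeds 3 to 5 cm tall and rice seedlings at the 1.5 to 2.5 leaf stage were flooded, with water held 1.5 to 3 cm above the soil. Compounds in 50/50 v/v aqueous/acetone went into the flood water at about 0.0313 to 0.500 kg/ha. Visual 0-9 ratings versus control were made 3 to 4 weeks later.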

[3] = system: ECHORC (Watergrass (Calif.)); assay: Preemergence weed control under flooded paddy conditions; assay type: in vivo, Echinochloa oryzoides; conditions: rated 3-4 weeks after treatment
Procedure, shortened: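 Silt loam, seeds in top 0.5 cm; flood held 1.5-3 cm; test cpd as acetone/water 50/50 into flood water, ~0.0313-0.500 kg/ha a.i.; greenhouse 3-4 wk; visual 0-9 score vs control.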

CYPSE (Flatsedge) = assay: as above; assay type: in vivo, Cyperus serotinus; conditions: rated 3-4 weeks after treatment
Procedure, shortened: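 First, seeds or propagules go into the top 0.5 cm of silt loam; next, water is held 1.5 to 3 cm over the soil; then compound (50/50 acetone/water) is pipetted into it at about 0.0313 to 0.500 kg/ha; finally plants are rated visually 0-9 after three to four weeks.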

[4] = system: IPOSS (Morningglory Spp.); assay: Postemergence herbicidal evaluation; assay type: in vivo, Ipomoea Spp.
Experimental: In the tests, seedling plants are grown in jiffy flats for about two weeks. The test compounds are dispersed in 50/50 acetone/water mixtures containing 0.5% TWEEN®20, a polyoxyethylene sorbitan monolaurate surfactant of Atlas Chemical Industries, in sufficient quantities to provide the equivalent of about 0.0156 kg to 0.500 kg per hectare of active compound when applied to the plants through a spray nozzle operating at 40 psi for a predetermined time. After spraying, the plants are placed on greenhouse benches and are cared for in accordance with conventional greenhouse procedures. From four to five weeks after treatment, the seedling plants are examined and rated according to the rating system set forth below. Where more than one test is involved for a given compound, the data are averaged.
Plant species employed in these evaluations are reported by header abbreviation, common name and scientific name.
as §2

CN1C(=O)C(F)SC1=Nc1cc(N2C(=O)C3=C(CCCC3)C2=O)c(F)cc1Cl (stereo not drawn) [Compound 5, N-{4-chloro-2-fluoro-5-[(5-fluoro-3-methyl-4-oxo-2-thiazolidinylidene)amino]phenyl}-1-cyclohexene-1,2-dicarboximide]
CHEAL preemergence herbicidal rating ([1]; rate 0.0625 kg/ha): 4.0
CHEAL preemergence herbicidal rating ([1]; rate 0.1250 kg/ha): 5.0
CHEAL preemergence herbicidal rating ([1]; rate 0.2500 kg/ha): 9.0
CHEAL preemergence herbicidal rating ([1]; rate 0.5000 kg/ha): 9.0
IPOSS preemergence herbicidal rating ([2]; rate 0.0625 kg/ha): 0.0
IPOSS preemergence herbicidal rating ([2]; rate 0.1250 kg/ha): 0.0
IPOSS preemergence herbicidal rating ([2]; rate 0.2500 kg/ha): 0.0
IPOSS preemergence herbicidal rating ([2]; rate 0.5000 kg/ha): 0.0
ECHCG herbicidal rating (ECHCG (Barnyardgrass); rate 0.0157 kg/ha): 0.0
ECHCG herbicidal rating (ECHCG (Barnyardgrass); rate 0.0313 kg/ha): 0.0
ECHCG herbicidal rating (ECHCG (Barnyardgrass); rate 0.0625 kg/ha): 0.0
ECHCG herbicidal rating (ECHCG (Barnyardgrass); rate 0.1250 kg/ha): 3.0
ECHCG herbicidal rating (ECHCG (Barnyardgrass); rate 0.2500 kg/ha): 4.0
ECHCG herbicidal rating (ECHCG (Barnyardgrass); rate 0.5000 kg/ha): 2.0
ORYSAT preemergence herbicidal rating (ORYSAT (Rice, Tebonnet); rate 0.0625 kg/ha): 0.0
ORYSAT preemergence herbicidal rating (ORYSAT (Rice, Tebonnet); rate 0.1250 kg/ha): 0.0
ORYSAT preemergence herbicidal rating (ORYSAT (Rice, Tebonnet); rate 0.2500 kg/ha): 2.0
ORYSAT preemergence herbicidal rating (ORYSAT (Rice, Tebonnet); rate 0.5000 kg/ha): 2.0
Herbicidal rating MOOVA (MOOVA (Monochoria); rate 0.1250 kg/ha): 1.0
Herbicidal rating MOOVA (MOOVA (Monochoria); rate 0.2500 kg/ha): 2.0
Herbicidal rating MOOVA (MOOVA (Monochoria); rate 0.5000 kg/ha): 4.0
Herbicidal rating ECHORC ([3]; 0.1250 kg/ha): 1.0
Herbicidal rating ECHORC ([3]; 0.2500 kg/ha): 2.0
Herbicidal rating ECHORC ([3]; 0.5000 kg/ha): 4.0
Herbicidal rating CYPSE (CYPSE (Flatsedge); 0.1250 kg/ha): 0.0
Herbicidal rating CYPSE (CYPSE (Flatsedge); 0.2500 kg/ha): 0.0
Herbicidal rating CYPSE (CYPSE (Flatsedge); 0.5000 kg/ha): 1.0
IPOSS herbicidal rating ([4]; rate 0.0157 kg/ha): 0.0
IPOSS herbicidal rating ([4]; rate 0.0313 kg/ha): 1.0
IPOSS herbicidal rating ([4]; rate 0.0625 kg/ha): 2.0
IPOSS herbicidal rating ([4]; rate 0.1250 kg/ha): 4.0
IPOSS herbicidal rating ([4]; rate 0.2500 kg/ha): 9.0
IPOSS herbicidal rating ([4]; rate 0.5000 kg/ha): 9.0

CN1C(=O)CSC1=Nc1cc(N2C(=O)C3=C(CCCC3)C2=O)c(F)cc1Cl [Compound 1, N-{4-chloro-2-fluoro-5-[(3-methyl-4-oxo-2-thiazolidinylidene)amino]phenyl}-1-cyclohexene-1,2-dicarboximide]
CHEAL preemergence herbicidal rating ([1]; rate 0.0313 kg/ha): 9.0
CHEAL preemergence herbicidal rating ([1]; rate 0.0625 kg/ha): 9.0
CHEAL preemergence herbicidal rating ([1]; rate 0.1250 kg/ha): 9.0
CHEAL preemergence herbicidal rating ([1]; rate 0.2500 kg/ha): 9.0
CHEAL preemergence herbicidal rating ([1]; rate 0.5000 kg/ha): 9.0
IPOSS preemergence herbicidal rating ([2]; rate 0.0313 kg/ha): 1.0
IPOSS preemergence herbicidal rating ([2]; rate 0.0625 kg/ha): 6.0
IPOSS preemergence herbicidal rating ([2]; rate 0.1250 kg/ha): 7.0
IPOSS preemergence herbicidal rating ([2]; rate 0.2500 kg/ha): 6.0
IPOSS preemergence herbicidal rating ([2]; rate 0.5000 kg/ha): 8.0
ECHCG herbicidal rating (ECHCG (Barnyardgrass); rate 0.0157 kg/ha): 0.0
ECHCG herbicidal rating (ECHCG (Barnyardgrass); rate 0.0313 kg/ha): 0.0
ECHCG herbicidal rating (ECHCG (Barnyardgrass); rate 0.0625 kg/ha): 2.0
ECHCG herbicidal rating (ECHCG (Barnyardgrass); rate 0.1250 kg/ha): 2.0
ECHCG herbicidal rating (ECHCG (Barnyardgrass); rate 0.2500 kg/ha): 5.0
ECHCG herbicidal rating (ECHCG (Barnyardgrass); rate 0.5000 kg/ha): 7.0
ORYSAT preemergence herbicidal rating (ORYSAT (Rice, Tebonnet); rate 0.0313 kg/ha): 0.0
ORYSAT preemergence herbicidal rating (ORYSAT (Rice, Tebonnet); rate 0.0625 kg/ha): 0.0
ORYSAT preemergence herbicidal rating (ORYSAT (Rice, Tebonnet); rate 0.1250 kg/ha): 2.0
ORYSAT preemergence herbicidal rating (ORYSAT (Rice, Tebonnet); rate 0.2500 kg/ha): 3.0
ORYSAT preemergence herbicidal rating (ORYSAT (Rice, Tebonnet); rate 0.5000 kg/ha): 6.0
Herbicidal rating MOOVA (MOOVA (Monochoria); rate 0.0313 kg/ha): 4.0
Herbicidal rating MOOVA (MOOVA (Monochoria); rate 0.0625 kg/ha): 4.5
Herbicidal rating MOOVA (MOOVA (Monochoria); rate 0.1250 kg/ha): 4.5
Herbicidal rating MOOVA (MOOVA (Monochoria); rate 0.2500 kg/ha): 5.0
Herbicidal rating MOOVA (MOOVA (Monochoria); rate 0.5000 kg/ha): 5.5
Herbicidal rating ECHORC ([3]; 0.0313 kg/ha): 2.0
Herbicidal rating ECHORC ([3]; 0.0625 kg/ha): 4.0
Herbicidal rating ECHORC ([3]; 0.1250 kg/ha): 6.0
Herbicidal rating ECHORC ([3]; 0.2500 kg/ha): 7.0
Herbicidal rating ECHORC ([3]; 0.5000 kg/ha): 9.0
Herbicidal rating CYPSE (CYPSE (Flatsedge); 0.0313 kg/ha): 0.0
Herbicidal rating CYPSE (CYPSE (Flatsedge); 0.0625 kg/ha): 0.0
Herbicidal rating CYPSE (CYPSE (Flatsedge); 0.1250 kg/ha): 0.0
Herbicidal rating CYPSE (CYPSE (Flatsedge); 0.2500 kg/ha): 2.0
Herbicidal rating CYPSE (CYPSE (Flatsedge); 0.5000 kg/ha): 8.0
IPOSS herbicidal rating ([4]; rate 0.0157 kg/ha): 6.0
IPOSS herbicidal rating ([4]; rate 0.0313 kg/ha): 9.0
IPOSS herbicidal rating ([4]; rate 0.0625 kg/ha): 9.0
IPOSS herbicidal rating ([4]; rate 0.1250 kg/ha): 9.0
IPOSS herbicidal rating ([4]; rate 0.2500 kg/ha): 9.0
IPOSS herbicidal rating ([4]; rate 0.5000 kg/ha): 9.0
